The Kb is the affinity of an antagonist, worked out from how it opposes an agonist.

What all share (type): cell-based
Assay [1] addresses T1, human prostanoid IP receptor (Homo sapiens, UniProt P43119).
T1 construct: expressed in transfected cells
The assay is described as follows: FLIPR Ca2+ signaling PG antagonist assay, IP stable cell line. Particulars: HEK-293 EBNA cells, human recombinant IP, no exogenous G-protein; standard agonist Cicaprost. How it is done: (§1) The above compounds were tested for PG antagonist activity as follows using human recombinant prostanoid receptor (DP1, EP1-4, FP, IP and TP) stable cell lines: In order to measure the response of Gs and Gi coupled prostanoid receptors as a Ca^2+ signal, chimeric G protein cDNAs were used. Stable cell lines over-expressing human prostanoid DP1, EP1-4, FP, IP, and TP receptors were established as follows:
(§2) Briefly, human prostanoid DP1, EP2, and EP4 receptor cDNAs were co-transfected with chimeric Gqs cDNA containing a haemagglutanin (HA) epitope; human prostanoid EP3 receptors were co-transfected with chimeric Gqi-HA; human EP1, FP, IP, and TP receptor cDNAs were expressed with no exogenous G-proteins. Gqs and Gqi chimeric cDNAs (Molecular Devices, Sunnyvale, Calif., U.S.A.), as well as cDNAs of prostanoid receptors, were cloned into a pCEP4 vector with a hygromycin B selection marker. Transfection into HEK-293 EBNA (Epstein-Barr virus nuclear antigen) cells was achieved by the FuGENE 6 transfection Reagent (Roche Applied Science, Indianapolis, Ind., USA). Stable transfectants were selected according to hygromycin resistance. Because Gqs and Gqi contained an HA epitope, G-protein expression was detected by Western blotting analysis using anti-mouse HA monoclonal antibody and horseradish peroxidase (HRP)-conjugated secondary antibody, while functional expression of prostanoid receptors was detected by FLIPR screening (Matias et al., 2004). These stable cell lines were validated using previously published antagonists at 10 μM against serial dilutions of standard agonists by FLIPR functional assays for Ca^2+ Signaling (as described below).
(§3) Ca^2+ signaling studies were performed using a FLIPR TETRA system (Molecular Devices, Sunnyvale, Calif., USA) in the 384-format. This is a high-throughput instrument for cell-based assays to monitor Ca^2+ signaling associated with GPCRs and ion channels. Cells were seeded at a density of 5×10^4 cells/well in BioCoat poly-D-lysine coated, black wall, clear bottom 384-well plates (BD Biosciences, Franklin lakes, NJ, USA) and allowed to attach overnight in an incubator at 37° C. The cells were then washed twice with HBSS-HEPES buffer (Hanks' balanced salt solution without bicarbonate and phenol red, 20 mM HEPES, pH 7.4) using an ELx405 Select CW Microplate Washer (BioTek, Winooski, Vt., USA). After 60 min of dye-loading in the dark using the Ca^2+-sensitive dye Fluo-4AM (Invitrogen, Carlsbad, Calif., USA), at a final concentration of 2×10^−6M, the plates were washed 4 times with HBSS-HEPES buffer to remove excess dye and leaving 50 μl of buffer in each well. The plates were then placed in the FLIPR TETRA instrument and allowed to equilibrate at 37° C. Compounds were added in a 25 μl volume to each well to give final concentrations of 0.1 μM, 0.3 μM, 1 μM, 3 μM, 10 μM, and 30 μM; or 0.067 μM, 0.1 μM, 0.2 μM, 0.3 μM, 0.67 μM, and 1 μM for cells over-expressing TP receptors. After 4.5 minutes, a 7-point serial dilution of the standard agonist for the corresponding receptor, in a 25 μl volume was injected at the final concentrations from 10^−11M to 10^−5M in 10-fold serial dilution increments for cells expressing human recombinant DP1, EP1, EP2, EP3, EP4, FP, and IP receptors. The dose range for the standard agonist for human recombinant TP receptors was from 10^−12M to 10^−6M. HBSS-HEPES buffer was used as the negative control for the standard agonists. Cells were excited with LED (light emitting diode) excitation at 470-495 nm and emission was measured through an emission filter at 515-575 nm. Assay plates were read for 3.5 minutes using the FLIPR^TETRA. The peak increase in fluorescence intensity was recorded for each well. On each plate, negative controls, dose response of positive controls, and co-treatments of antagonist-agonist for each dose were in triplicates. Standard agonists were as follows: DP=BW 245C, EP1-EP4=PGE2, FP=17-phenyl-PGF2α, IP=Cicaprost, and TP=U-46619. […]

Assay [2] concerns the target T2, human prostanoid TP receptor (Homo sapiens, UniProt P21731).
T2 construct: expressed in transfected cells
T2 sequence (P21731 1-343): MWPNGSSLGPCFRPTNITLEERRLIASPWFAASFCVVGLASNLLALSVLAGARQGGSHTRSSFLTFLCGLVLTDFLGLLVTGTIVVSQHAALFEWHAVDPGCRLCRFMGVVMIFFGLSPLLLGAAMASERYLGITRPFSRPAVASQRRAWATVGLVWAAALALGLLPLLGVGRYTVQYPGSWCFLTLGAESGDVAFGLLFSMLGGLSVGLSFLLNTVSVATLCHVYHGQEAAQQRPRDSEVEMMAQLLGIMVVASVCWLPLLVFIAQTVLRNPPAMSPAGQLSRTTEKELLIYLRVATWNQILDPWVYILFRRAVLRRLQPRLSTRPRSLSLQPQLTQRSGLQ
The assay is described as follows: FLIPR Ca2+ signaling PG antagonist assay, TP stable cell line. Particulars: HEK-293 EBNA cells, human recombinant TP, no exogenous G-protein; standard agonist U-46619. How it is done: as §1, §2, §3

Assay [3] has as its target T3, human prostanoid FP receptor (Homo sapiens, UniProt P43088).
T3 construct: expressed in transfected cells
The assay can be described thus: FLIPR Ca2+ signaling PG antagonist assay, FP stable cell line. The settings on record: HEK-293 EBNA cells, human recombinant FP, no exogenous G-protein; standard agonist 17-phenyl-PGF2α. How it is done:
as §1, §2, §3

Assay [4] addresses T4, human prostanoid DP1 receptor (Homo sapiens, UniProt Q13258).
T4 construct: expressed in transfected cells
T4 sequence (Q13258 1-359): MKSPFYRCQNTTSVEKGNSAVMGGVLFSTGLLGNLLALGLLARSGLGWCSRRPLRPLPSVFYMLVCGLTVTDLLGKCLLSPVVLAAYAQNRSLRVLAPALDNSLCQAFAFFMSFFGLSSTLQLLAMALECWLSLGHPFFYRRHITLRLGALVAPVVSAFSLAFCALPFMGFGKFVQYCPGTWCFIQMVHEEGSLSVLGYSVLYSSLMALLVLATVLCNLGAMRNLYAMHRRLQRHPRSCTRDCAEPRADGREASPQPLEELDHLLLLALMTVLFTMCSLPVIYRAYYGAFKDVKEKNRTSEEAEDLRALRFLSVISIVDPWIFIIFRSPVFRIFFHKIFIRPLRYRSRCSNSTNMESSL
The assay is described as follows: FLIPR Ca2+ signaling PG antagonist assay, DP1 stable cell line. The settings on record: HEK-293 EBNA cells, human recombinant DP1 with chimeric Gqs; standard agonist BW 245C; read-out: DP (Kb, PG antagonist activity). How it is done:
as §1, §2, §3

T1 sequence (P43119 whole entry): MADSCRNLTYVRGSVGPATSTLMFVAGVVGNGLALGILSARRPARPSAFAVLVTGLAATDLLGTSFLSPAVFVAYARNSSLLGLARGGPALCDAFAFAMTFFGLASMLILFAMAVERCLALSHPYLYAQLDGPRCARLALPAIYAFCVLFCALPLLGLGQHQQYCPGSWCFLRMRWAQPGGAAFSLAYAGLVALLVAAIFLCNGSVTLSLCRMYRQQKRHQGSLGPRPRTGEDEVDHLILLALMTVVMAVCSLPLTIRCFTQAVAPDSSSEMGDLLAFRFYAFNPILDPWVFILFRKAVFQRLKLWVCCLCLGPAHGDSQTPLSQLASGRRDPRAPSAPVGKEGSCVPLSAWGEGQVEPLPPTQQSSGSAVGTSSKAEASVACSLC
T3 sequence (P43088 whole entry): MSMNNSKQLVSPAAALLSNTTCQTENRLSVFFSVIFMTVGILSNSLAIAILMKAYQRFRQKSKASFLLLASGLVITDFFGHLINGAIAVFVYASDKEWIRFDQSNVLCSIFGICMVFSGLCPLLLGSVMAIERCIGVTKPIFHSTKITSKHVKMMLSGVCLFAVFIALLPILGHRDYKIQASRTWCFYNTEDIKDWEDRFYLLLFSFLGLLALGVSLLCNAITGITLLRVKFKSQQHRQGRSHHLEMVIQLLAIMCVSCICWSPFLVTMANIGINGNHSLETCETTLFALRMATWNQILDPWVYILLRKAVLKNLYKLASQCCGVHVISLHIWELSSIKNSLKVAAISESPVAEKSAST

As to “1-(5-Bromo-2-Isobutoxy-Benzyl)-1H-Pyrrolo[2,3-B]Pyridine-5-Carboxylic Acid [Example 30]”, the figures for the Kb in assay [1] and in assay [2] were 6 µM and 5 nM, respectively.

Regarding “1-[5-Bromo-2-(2-Ethyl-Butoxy)-Benzyl]-1H-Pyrrolo[2,3-B]Pyridine-5-Carboxylic Acid [Example 31]”, the Kb in assay [1] worked out at 0.52 µM.

With `CC(C)COc1ccc(Br)cc1Cn1cc2ccc(C(=O)O)cc2n1` [Example 43, 2-(5-Bromo-2-Isobutoxy-Benzyl)-2H-Indazole-6-Carboxylic Acid], the Kb in assay [3] worked out at 2200 nM; in assay [4] it was 2000 nM; in assay [1] it was 4.9 µM; in assay [2], 110 nM.

Take `CCC(CC)COc1ccc(OC(F)(F)F)cc1Cn1ccc2cc(C(=O)O)cnc21` [Example 76, 1-[2-(2-Ethyl-Butoxy)-5-Trifluoromethoxy-Benzyl]-1H-Pyrrolo[2,3-B]Pyridine-5-Carboxylic Acid]: the results for the Kb in assay [1] and in assay [2] were 1.4 µM and 20 nM, respectively.

The record behind these values is patent US10988474B2, “Compounds acting at multiple prostaglandin receptors giving a general anti-inflammatory response” (ALLERGAN, INC., priority 2011, dated 2021).
